Results from patent US10392348B2, “2-oxo-3,4-dihydroquinoline compounds as plant growth regulators” (Syngenta Participations AG, priority 2015, dated 2019).
Read-outs that look alike come from different tables or passages of the source.

What was measured:
[1] = system: soybean plants (variety S20-G7); experiment: Reduced plant water use in soybean (foliar spray, repeated weighing of pots); assay type: in vivo; conditions: Glycine max, foliar, Table B1, sprayed at 500 μM, vs negative control
Procedure, shortened: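 Daytime water use was tracked by weighing pots of 12-day-old soybean after foliar spray of compound formulated as EC plus EXTRAVON 1 g/20 L. Cumulative total (0-2.5 DAA) sums a.m. and p.m. readings; values baseline-adjusted by covariance analysis against formulation-only negative control.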

[2] = system: corn plants (variety NK OCTET); experiment: Reduced plant water use in corn (foliar spray, repeated weighing of pots); assay type: in vivo; conditions: Zea mays, corn plants sprayed at 500 μM, average of 6 pots
Procedure, shortened: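 Water use was summed over 0–2.5 days after application, from repeated day-time weighings of pots and corrected by ANCOVA for pre-application baseline. Plants, 12 days old, received foliar EC sprays diluted with water plus 0.4% rape seed methyl ester adjuvant.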

[3] = 0 h, 0 DAA a.m. (10:30-12:50), read-out: % WU 0 DAA AM
[4] = 24 h, 1 DAA a.m. (7:30-12:50), read-out: % WU 1DAA AM
[5] = 24 h, 1 DAA p.m. (14:00-19:50), read-out: % WU 1DAA PM
[6] = 48 h, 2 DAA a.m. (07:30-12:50), read-out: % WU 2 DAA AM
[7] = 48 h, 2 DAA p.m. (14:00-19:50), read-out: % WU 2 DAA PM
[8] = 60 h, cumulative total WU (0-2.5 DAA), read-out: % WU Total 0 to 2.5 DAA
[9] = 0 h, water use during day time vs negative control, 0 DAA a.m. (10:30-12:50), read-out: % WU 0 DAA AM
[10] = 0 h, water use during day time vs negative control, 0 DAA p.m. (14:00-19:50), read-out: % WU 0DAA PM
[11] = 24 h, water use during day time vs negative control, 1 DAA a.m. (07:30-12:50), read-out: % WU 1DAA AM
[12] = 24 h, water use during day time vs negative control, 1 DAA p.m. (14:00-19:50), read-out: % WU 1DAA PM
[13] = 48 h, water use during day time vs negative control, 2 DAA a.m. (07:30-12:50), read-out: % WU 2 DAA AM
[14] = 48 h, water use during day time vs negative control, 2 DAA p.m. (14:00-19:50), read-out: % WU 2 DAA PM
[15] = 60 h, cumulative total water use 0-2.5 DAA (sum of the time points) vs negative control, read-out: % WU Total 0 to 2.5 DAA

Structure (SMILES) | change in vivo at 500 µM [1, 3] [%] | change in vivo at 500 µM [1, 4] [%] | change in vivo at 500 µM [1, 5] [%] | change in vivo at 500 µM [1, 6] [%] | change in vivo at 500 µM [1, 7] [%] | change in vivo at 500 µM [1, 8] [%] | change in vivo at 500 µM [2, 9] [%] | change in vivo at 500 µM [2, 10] [%] | change in vivo at 500 µM [2, 11] [%] | change in vivo at 500 µM [2, 12] [%] | change in vivo at 500 µM [2, 13] [%] | change in vivo at 500 µM [2, 14] [%] | change in vivo at 500 µM [2, 15] [%] | melting point [°C]
CCCN1C(=O)CCc2cc(CNS(=O)(=O)c3ccc(F)cc3)ccc21 [Compound 3.009, 4-fluoro-N-[(2-oxo-1-propyl-3,4-dihydroquinolin-6-yl)methyl]benzenesulfonamide] | -17.5 | -9.4 | -6.4 | -5.5 | -4.2 | -8.5 | -16.9 | -13.9 | -13.2 | -11.9 | -9 | -8.2 | -11.6 | 143 to 144
CCCN1C(=O)CCc2cc(CNS(=O)(=O)c3ccc(OC)cc3)ccc21 [Compound 3.010, 4-methoxy-N-[(2-oxo-1-propyl-3,4-dihydroquinolin-6-yl)methyl]benzenesulfonamide] | -28 | -3 | -1 | -2.1 | -1.7 | -5.7 | -14.4 | -8.3 | -6.3 | -5.4 | -2.5 | -2.2 | -5.5 | 143 to 144
C/C=C/S(=O)(=O)NCc1ccc2c(c1)CCC(=O)N2CCC [Compound 3.060, (E)-N-[(2-oxo-1-propyl-3,4-dihydroquinolin-6-yl)methyl]prop-1-ene-1-sulfonamide] | -7.9 | -5.8 | -2.6 | -5.4 | -2.7 | -4.6 | -14.8 | -10 | -10.6 | -8.4 | -8.2 | -6.4 | -9.3 | 95 to 99
CCCN1C(=O)CCc2cc(CNS(=O)(=O)c3ccc(C)s3)ccc21 [Compound 3.061, 5-methyl-N-[(2-oxo-1-propyl-3,4-dihydroquinolin-6-yl)methyl]thiophene-2-sulfonamide] | -47.8 | 1 | 3.4 | 1.6 | 1.2 | -13.7 | -20.8 | -19.1 | -9.5 | -7.5 | -2.8 | -3.9 | -9 | 151 to 154
CCCN1C(=O)CCc2cc(CNS(=O)(=O)c3cn(C)cn3)ccc21 [Compound 3.063, 1-methyl-N-[(2-oxo-1-propyl-3,4-dihydroquinolin-6-yl)methyl]imidazole-4-sulfonamide] | -9.3 | -5.1 | -3.9 | -6.6 | -5 | -5.5 | -8.4 | -3.1 | -3 | -1 | -1.5 | 2 | -1.4 | 168 to 171
CCCN1C(=O)CCc2cc(CNS(=O)(=O)c3cc(Cl)sc3Cl)ccc21 [Compound 3.064, 2,5-dichloro-N-[(2-oxo-1-propyl-3,4-dihydroquinolin-6-yl)methyl]thiophene-3-sulfonamide] | -34.7 | -23.3 | -21.3 | -17.2 | -13.5 | -22.2 | -12.6 | -14.2 | -11.6 | -9.9 | -5.6 | -4.7 | -9.3 | 131 to 134
CCCN1C(=O)CCc2cc(CNS(=O)(=O)CCC(F)(F)F)ccc21 [Compound 3.067, 3,3,3-trifluoro-N-[(2-oxo-1-propyl-3,4-dihydroquinolin-6-yl)methyl]propane-1-sulfonamide] | -28.4 | -19.3 | -17.2 | -13.3 | -9.5 | -17.2 | -14.7 | -10.7 | -12.1 | -11.5 | -9.9 | -10.1 | -11.1 | 132 to 135
CCCN1C(=O)CCc2cc(CNS(=O)(=O)c3ccsc3)ccc21 [Compound 3.068, N-[(2-oxo-1-propyl-3,4-dihydroquinolin-6-yl)methyl]thiophene-3-sulfonamide] | -46 | -39.3 | -31.6 | -22.3 | -15.3 | -31.6 | -25.5 | -24.9 | -15.8 | -13.1 | -8.9 | -9.4 | -14.8 | 150 to 154
CCCN1C(=O)CCc2cc(CNS(=O)(=O)c3ccc4ccccc4c3)ccc21 [Compound 3.075, N-[(2-oxo-1-propyl-3,4-dihydroquinolin-6-yl)methyl]naphthalene-2-sulfonamide] | -10.8 | -2.1 | -0.6 | -2.1 | -2 | -3.3 | -9.8 | -7.9 | -8.2 | -6.4 | -4.9 | -3.3 | -6.3 | 169 to 173
